Reference: patent publication US12570694B2, “Peptides and pharmaceutical, nutraceutical or veterinary compositions for hair loss prevention and/or treatment” (VYTRUS BIOTECH, S.L., priority 2016, dated 2026)
Values joined by “and” are separate entries in the source; they are usually repeats but may differ in a detail not shown here. Equal values may be shown once.

Experiments:
[1] = system: insulin growth factor 1 (IGF-1); assay: IGF-1 levels in secretomas of treated HFDPC; type: cell-based, human; details: 24 h and 48 h after treatment, data not shown
Protocol: Secretomas (supernatants that could be recovered from the HFDPC cultures challenged with the tested materials of Table 1) were analysed for detecting the presence and levels of animal cell growth factors and of microRNAs associated with hair growth in dermal papilla. […] Similar results (at 24 and 48 h) were observed when analysing the levels of fibroblast growth factor 7 (FGF-7). Both growth factors are associated with the promotion of hair growth.

[2] = system: miRNA-31; assay: miRNA-31 expression in secretomes of treated HFDPC; type: cell-based, human; details: in relation to the controls, FIG. 5(A),(C)
From the text: FIG. 5, related with Assay 1, is a graph showing the expression levels of miRNA-22 (FIG. 5(B)) and miRNA-31 (FIGS. 5(A) and (C)) in secretomas from HFDPC treated with either the peptide of SEQ ID NO: 6 or the cell-free supernatants of Curcuma longa.
From these secretomes of HFDPC, also the levels of the microRNAs miRNA-31 and miRNA-22 were detected (FIG. 5).

[3] = system: males and females with hair-loss problems; assay: In vivo test: capillary (hair) density by Trichoscan microphotography in volunteers; design: species or system human
Protocol: (§1) Curcuma longa cell-free supernatant prepared as indicated in Example 2, as well as the peptide of SEQ ID NO: 6 in the PBS buffered fortifying solution 2× disclosed in Example 1 were tested in males and females (n=60, from 18 to 60 years old) with hair-loss problems. There were excluded those volunteers that received a capillary treatment three months before the assay, volunteers with cutanic pathologies at scalp (psoriasis, dermatitis, etc.) and allergy to compounds in the formulations.
(§2) Tested compounds were daily applied.
(§3) At time 0 (T0) there were taken scalp pictures (frontal and occipital parts), trichograms for determining the hair phase cycle (telogen or anagen phase), the combing test (number of hair lost during combing), and capillary density by microphotography with Trichoscan®.
(§4) At t=45 days and t=90 days, there were performed the combing test and the density tests (Trichoscan®)
(§5) At t=150 days again as in t=0.
(§6) Volunteers were separated in three groups. Group 1 receiving SEQ ID NO: 6 in the PBS buffered fortifying solution 2× disclosed in Example 1; Group 2 receiving Curcuma longa cell-free supernatant prepared as indicated in Example 2, and Group 3 the placebo.
Data are depicted in next Table 2 for capillary density. This table includes the average values determined of capillary density increase after evaluating in each volunteer the number of hairs in a 0.25 cm^2 are, capillary density at t=0 and t=90, and said increase in relation to t=0 value

[4] = system: males and females with hair-loss problems; assay: In vivo test: combing test (number of hair lost during combing) in volunteers; design: species or system human
Protocol: as §1, §2, §3, §4, §5, §6
In particular, this table includes the average values determined for combing test (number of hair lost during combing). From the combing test results at t=0, t=45 and t=90 the percentage of reduction of hair loss is calculated contrasting values of t=0 with the values at t=45 and at t=90.

[5] = system: human dermal fibroblasts (HDF); assay: Wound healing (scratch) assay on human dermal fibroblasts; type: cell-based; details: FIG. 17; 5 μg/ml and 0.05 μg/ml; 5 days of treatment; triplicate mean; vs 0.1% FBS basal, 10% FBS and TGF-β1 positive controls
Protocol: In order to test the effect of the sulfaction state of the peptides on their activity, it is herewith provided as reference example a wound healing assay conducted onto human dermal fibroblasts (HDF).
Human dermal fibroblasts were seeded in a 24-well plate and were grown to confluence. A 2 mm width scratch was done on the culture monolayer. Then the test products in culture medium were added and the cicatrisation process was followed by means of phase contrast microscopy. With this aim, photographs were taken at initial of the test (T=0 h) before the scratching and after the treatment (at 12 h and at 72 h). Cicatrisation process was evaluated by quantifying wound area reduction at each time.
Data at the end of the test (5 days of treatment) are depicted in FIG. 17, wherein the wound healing potential is depicted as the Healed Area (in μm^2) for assayed peptide.
The results derive from a triplicate test. Values of cicatrised area (or % of cicatrisation) are the mean values.

[6] = group mean, minimal and maximal values not considered
[7] = group mean, combing test, minimal and maximal values not considered
[8] = individual volunteers, negative = fewer hairs lost

CH3—C(O)—YIYT-NH2 (Ac-YIYT-NH2) [SEQ ID NO: 6, in vivo: dissolved 0.025% w/w in PBS buffered fortifying solution 2×]
levels of insulin growth factor 1 (IGF-1) [1]: higher levels were meaningful | expression index of miRNA-31 [2]: increase of the expression index of miRNA-31 | new hairs appeared in the whole hair ([3]; concluded from the mean hair density increase at T150): ≤ 14000 hairs | Capillary density increase ([3]; group average, t=90 in relation to t=0, daily application (Table 4)): 14.66% | HAIR DENSITY INCREASE T90, Mean [3, 6]: 14.03% | HAIR DENSITY INCREASE T150, Mean [3, 6]: 19.27% | HAIR DENSITY INCREASE T90 ([3]; individual volunteers, T90 vs T0): 16.66% and 6.06% and 40.91% and 11.11% (2×) and 22.73% and 34.37% and 5.40% and 17.15% and 7.14% and 0.00% (3×) and −9.62%(*) and 70.01%(*) and 4.76% and 39.99% and 9.67% and 11.54% | HAIR DENSITY INCREASE T150 ([3]; individual volunteers, T150 vs T0): 24.99% and 6.06% and 36.36% and 14.63% and 18.18% and 21.87% and −5.41% and 2.86% and 35.71% and 0.00% (2×) and 14.81% and −7.69%(*) and 60.01% and 38.09% and 7.40% and 73.32%(*) and 9.67% and 42.31% | HAIR DENSITY 1/cm2 T90 ([3]; individual volunteers, T90 days): 111.38 1/cm2 and 139.22 1/cm2 and 123.31 1/cm2 (2×) and 119.33 1/cm2 (3×) and 107.4 1/cm2 (2×) and 171.04 1/cm2 and 155.13 1/cm2 and 163.09 1/cm2 and 115.35 1/cm2 (2×) and 186.95 1/cm2 and 135.24 1/cm2 (2×) and 87.51 1/cm2 and 83.53 1/cm2 | Nr HAIRS/0.25 cm2 T90 ([3]; individual volunteers, T90 days, daily application): 28 HAIRS/0.25 cm2 and 35 HAIRS/0.25 cm2 and 31 HAIRS/0.25 cm2 (2×) and 30 HAIRS/0.25 cm2 (3×) and 27 HAIRS/0.25 cm2 (2×) and 43 HAIRS/0.25 cm2 and 39 HAIRS/0.25 cm2 and 41 HAIRS/0.25 cm2 and 29 HAIRS/0.25 cm2 (2×) and 47 HAIRS/0.25 cm2 and 34 HAIRS/0.25 cm2 (2×) and 22 HAIRS/0.25 cm2 and 21 HAIRS/0.25 cm2 | HAIR DENSITY 1/cm2 T150 ([3]; individual volunteers, T150 days): 119.33 1/cm2 (2×) and 139.22 1/cm2 (2×) and 123.11 1/cm2 and 103.42 1/cm2 (2×) and 155.13 1/cm2 and 143.2 1/cm2 and 151.15 1/cm2 and 115.35 1/cm2 (3×) and 123.31 1/cm2 (2×) and 190.93 1/cm2 and 127.29 1/cm2 and 135.24 1/cm2 and 147.18 1/cm2 | Nr HAIRS/0.25 cm2 T150 ([3]; individual volunteers, T150 days, daily application): 30 HAIRS/0.25 cm2 (2×) and 35 HAIRS/0.25 cm2 (2×) and 31 HAIRS/0.25 cm2 (3×) and 26 HAIRS/0.25 cm2 (2×) and 39 HAIRS/0.25 cm2 and 36 HAIRS/0.25 cm2 and 38 HAIRS/0.25 cm2 and 29 HAIRS/0.25 cm2 (3×) and 48 HAIRS/0.25 cm2 and 32 HAIRS/0.25 cm2 and 34 HAIRS/0.25 cm2 and 37 HAIRS/0.25 cm2 | reduction of the % of hair loss (in words) ([4]; T45, T90 and T150 compared with T0): meaningful reduction of the % of hair loss | % REDUCTION OF HAIR LOSS T0 vs. T150, Mean [4, 7]: 68.15% | % hair-loss reduction t = 0 vs t = 45, mean [4, 7]: 40.48% | % hair-loss reduction t = 0 vs t = 90, mean [4, 7]: 39.72% | COMBING TEST T45 ([4]; individual volunteers, number of hair lost during combing, day 45): 7 and 54 and 23 and 13 and 88 and 184 and 34 and 58 and 60 and 62 and 50 and 10 and 31 and 28 and 101 and 66 and 24 and 14 and 46 and 92 | COMBING TEST T90 ([4]; individual volunteers, number of hair lost during combing, day 90): 6 and 88 and 28 (2×) and 36 and 154 and 60 and 50 and 61 and 84 and 27 and 12 and 45 and 118 and 91 and 23 and 22 and 59 and 62 | COMBING TEST T150 ([4]; individual volunteers, number of hair lost during combing, day 150): 5 and 13 (2×) and 19 (2×) and 22 and 24 and 18 and 12 and 20 (3×) and 23 and 29 and 95 and 42 and 167 and 16 and 36 | % REDUCTION OF HAIR LOSS T0 VS. T45 [4, 8]: −86.27% and −55.74% and −46.51% and −69.05% and 72.55% and 183.08(*) % and −43.33% and −44.23% and −47.83% and −78.32% and −30.56% and −98.13(*) % and −36.73% and −68.54% and −31.29% and −67.00% and −22.58% and −64.10% and −42.50% and 33.33% | % REDUCTION OF HAIR LOSS T0 VS. T90 [4, 8]: −88.24% and −27.87% and −34.88% and −33.33% and −29.41% and 136.92(*) % and 0.00% and −51.92% and −46.96% and −70.63% and −62.50% and −97.76(*) % and −49.44% and −19.73% and −54.50% and −25.81% and −43.59% and −26.25% and −10.14% | % REDUCTION OF HAIR LOSS T0 vs. T150 [4, 8]: −90.20% and −89.34% and −69.77% and −54.76% and −56.86% and −63.08% and −70.00% and −88.46% and −82.61% and −91.96(*) % and −59.72% and −82.24% and −78.65% and −71.43% and −16.50% and −35.48(*) % and −58.97% and −55.00% and −71.01% | wound healing potential, Healed Area [5]: independent of its sulfaction state
